Data taken from patent US20250025438A1, “Derivative of aspartic acid and use thereof in treatment of metabolic diseases such as hepatic fibrosis and non-alcoholic hepatitis” (SHENZHEN JINGTAI TECHNOLOGY CO., LTD., priority 2021, published 2025).
Where a name gives a salt, the structure may show the parent alone. Where a SMILES comes first, the peptide text is derived from it.

Experiments:
Type in all cases: cell-based
IL-1β = test: In vitro efficacy in semi-activated LX2 cells, qPCR: IL-1β; conditions: 48 hours, Q-PCR; for inhibition at 50 µM: Homo sapiens, LX-2, 50 µM, read-out: IL-1β mRNA inhibition rate; for IL-1β mRNA inhibition rate: 50 µM
Description: (§1) Test compounds were added to the LX-2 cells respectively, and total RNA in the cells was extracted 48 hours later. This experiment was performed strictly in accordance with the instructions of the Total RNA Kit. The steps were as follows (note: this experiment was performed on ice throughout the entire process, and special RNase-free tips were used throughout the entire process): • 1) The 12-well cell culture plate was taken out from the incubator, the cell culture medium was discarded, the cells were washed twice with 1 mL of 1×PBS, and a negative pressure suction device was used to fully remove PBS; • 2) 350 μL of TRK Lysis Buffer mixture/well was prepared as needed (mixture preparation method: 1 mL of TRKLysis Buffer+20 μL of β-mercaptoethanol), vortexed and mixed well. 350 μL was added to each well of the 12-well cell culture plate, and allowed to stand at room temperature for 5 minutes to fully lyse the cells; • 3) 70% ethanol/well was prepared as needed, vortexed and mixed well. 350 μL was added to each well of the 12-well cell culture plate, mixed well by shaking, and transferred to the spin column (spin column+collection tube were assembled); • 4) Centrifugation was performed at 4° C., 12000 g for 60 sec. The waste liquid was discarded after centrifugation, while the spin column was kept; • 5) 500 μL of RNA Wash Buffer I was added, centrifuged at 4° C., 12000 g for 60 sec, the waste liquid was discarded after centrifugation, and the collection column was kept; • 6) 500 μL of RNA Wash Buffer II (confirmed that ethanol had been added) was added, centrifuged at 4° C., 12000 g for 60 sec, the waste liquid was discarded after centrifugation, and the collection column was kept; • 7) step 6) was repeated once again, centrifugation was performed at 4° C., 12000 g for 90 sec, the waste liquid was discarded after centrifugation, and the collection column was kept; • 8) Centrifugation was performed at 4° C., 12000 g for 120 sec to ensure that the spin column was fully dried; • 9) The dried spin column was inserted into a new 1.5 mL EP tube, and 30 μL of DEPC water was added to the membrane in the center of the spin column. It should be careful not to touch the EP tube cover in this step. It was allowed to stand at room temperature for 5 minutes to ensure that the RNA was fully dissolved in DEPC water. Centrifugation was performed at 4° C., 12000 g for 60 sec, and the EP tube was kept; • 10) NanoDrop ultra-micro-volume spectrophotometer was used to detect RNA concentration;
(§2) 5.2 Reverse transcription of RNA into cDNA: According to the instructions of PrimeScript™ RT reagent Kit (Perfect Real Time), the specific experimental steps were as follows:
(§3) 5.3 Q-PCR detection of target gene expression: According to the instructions of Power SYBR® Green PCR Master Mix, the specific operations were as follows:
(§4) After the reaction was completed, the amplification curve and dissolution curve of Q-PCR were confirmed, and the relative quantification method ([…]) was used to perform data analysis on the experimental results.
(§5) LX2 cells were passaged and plated normally. […] After 48 hours, the cells were collected, total RNA was extracted, and Q-PCR was used to detect the changes in the mRNA expression levels of liver fibrosis-related genes (ACTA2 encoding α-SMA, COL1A1 and COLIA2 encoding collagen I, COL3A1 encoding collagen III, SMAD3 encoding Smad3) and inflammation-related genes (IL1β encoding IL-1β, TNFα encoding TNFα) (for specific methods, see 5. Q-PCR detection of target gene expression as described above). α-SMA was a marker of hepatic stellate cell activation, and collagen I and collagen III were the main components of extracellular matrix deposition.

Smad3 = test: In vitro efficacy in semi-activated LX2 cells, qPCR: Smad3; conditions: 48 hours, Q-PCR; for inhibition of the expression of Smad3 at the mRNA level: Table 2; for inhibition at 50 µM: Homo sapiens, LX-2, 50 µM, read-out: Smad3 mRNA inhibition rate
Description: as §1, §2, §3, §4, §5

α-SMA = test: In vitro efficacy in semi-activated LX2 cells, qPCR: α-SMA; conditions: 48 hours, Q-PCR; for inhibition at 50 µM: read-out: α-SMA mRNA inhibition rate
Description: as §1, §2, §3, §4, §5

COL3A1 = test: In vitro efficacy in semi-activated LX2 cells, qPCR: COL3A1; conditions: 48 hours, Q-PCR; for inhibition at 50 µM: Homo sapiens, LX-2, 50 µM, read-out: COL3A1 mRNA inhibition rate; for COL3A1 mRNA inhibition rate: 50 µM
Description: as §1, §2, §3, §4, §5

TNF-α = test: In vitro efficacy in semi-activated LX2 cells, qPCR: TNF-α; conditions: Q-PCR; for inhibition at 50 µM: Homo sapiens, LX-2, 48 hours, read-out: TNF-α mRNA inhibition rate
Description: as §1, §2, §3, §4
(§6) LX2 cells were passaged and plated normally. After adherent growth for 12 hours, 50 µM of the test compound was added. After 48 hours, the cells were collected, total RNA was extracted, and Q-PCR was used to detect the changes in the mRNA expression levels of liver fibrosis-related genes (ACTA2 encoding α-SMA, COL1A1 and COLIA2 encoding collagen I, COL3A1 encoding collagen III, SMAD3 encoding Smad3) and inflammation-related genes (IL1β encoding IL-1β, TNFα encoding TNFα) (for specific methods, see 5. Q-PCR detection of target gene expression as described above). α-SMA was a marker of hepatic stellate cell activation, and collagen I and collagen III were the main components of extracellular matrix deposition.

[1] = system: collagen I and collagen III; test: Semi-activated LX2 cells, qPCR: collagen I and collagen III at the mRNA level; conditions: 48 hours, Q-PCR, Table 2
Description: as §1, §3
as §6, with “deposition. […]” for “deposition.”

COL1A1 = test: In vitro efficacy in semi-activated LX2 cells, qPCR: COL1A1; conditions: 48 hours, Q-PCR; for inhibition at 50 µM: Homo sapiens, LX-2, 50 µM, read-out: COL1A1 mRNA inhibition rate; for COL1A1 mRNA inhibition rate: 50 µM
Description: as §1, §2, §3, §4, §5

COL1A2 = test: In vitro efficacy in semi-activated LX2 cells, qPCR: COL1A2; conditions: Homo sapiens, LX-2, 48 hours, Q-PCR, read-out: COL1A2 mRNA inhibition rate
Description: as §1, §2, §3, §4, §6

SMILES	inhibition at 50 µM (IL-1β)	inhibition at 50 µM (Smad3)	inhibition at 50 µM (α-SMA)	inhibition at 50 µM (COL3A1)	inhibition at 50 µM (TNF-α)	inhibition of the expression of collagen I and collagen III at the mRNA level [1]	inhibition at 50 µM (COL1A1)	further results
COC(=O)C[C@H](NC(=O)OCC1c2ccccc2-c2ccccc21)C(=O)O [Compound 9]	25 to 50%	10 to 25%	1 to 10%					inhibition of the expression of Smad3 at the mRNA level (Smad3): could inhibit
O=C(O)C[C@H](NC(=O)[C@@H]1CCCN1)C(=O)O [Compound 40] (H-Pro-Asp-OH)	1 to 10%	1 to 10%		25 to 50%	1 to 10%	could inhibit	25 to 50%	
CC(C)(C)OC(=O)C[C@H](NC(=O)OCC1c2ccccc2-c2ccccc21)C(=O)O [Compound 18]				1 to 10%		could inhibit	10 to 25%	inhibition at 50 µM (COL1A2): 1 to 10%
CC(C)(C)OC(=O)C[C@H](NC(=O)OC(C)(C)C)C(=O)O [Compound 17]		1 to 10%	1 to 10%		10 to 25%		1 to 10%	
CN(C(=O)OCC1c2ccccc2-c2ccccc21)[C@@H](CC(=O)OC(C)(C)C)C(=O)O [Compound 19]				10 to 25%		could inhibit	10 to 25%	inhibition at 50 µM (COL1A2): 10 to 25%
CC(C)(C)OC(=O)C[C@H](NC(=O)OCc1ccccc1)C(=O)O [Compound 16]					1 to 10%		1 to 10%	
CN(C)C(=O)N[C@@H](CC(=O)O)C(=O)O [Compound 62, (dimethylcarbamoyl)-L-aspartic acid]	1 to 10%	1 to 10%	1 to 10%		1 to 10%		1 to 10%	
CC(C)C(=O)N[C@@H](CC(=O)O)C(=O)O [Compound 59, isobutyryl-L-aspartic acid]			1 to 10%		1 to 10%	could inhibit	10 to 25%	
O=CN[C@@H](CC(=O)O)C(=O)O [Compound 29]			1 to 10%				1 to 10%	inhibition at 50 µM (COL1A2): 1 to 10%
C=CCOC(=O)C[C@H](NC(=O)OCC1c2ccccc2-c2ccccc21)C(=O)O [Compound 11]	25 to 50%	1 to 10%			1 to 10%			
N[C@@H](CC(=O)NCC(=O)O)C(=O)O [Compound 34]	1 to 10%	1 to 10%	1 to 10%	1 to 10%	1 to 10%			
CC(=O)N[C@@H](CC(=O)OC(C)(C)C)C(=O)O [Compound 31]	1 to 10%		1 to 10%				1 to 10%	
COC(=O)C[C@H](NC(=O)OC(C)(C)C)C(=O)O [Compound 8]	1 to 10%	1 to 10%		10 to 25%		could inhibit	10 to 25%	
CC(C)OC(=O)OCOC(=O)[C@H](Cc1ccccc1)NC(=O)[C@@H](N)CC(=O)O [Compound 53, (S)-3-amino-4-(((S)-1-(((isopropoxycarbonyl)oxy)methoxy)-1-oxo-3-phenylpropan-2-yl)amino)-4-oxobutyric acid hydrochloride]			10 to 25%	10 to 25%		could inhibit	10 to 25%	inhibition at 50 µM (COL1A2): 1 to 10%; inhibition of the expression of α-SMA at the mRNA level (α-SMA; Table 2): could inhibit
CC(C)(C)OC(=O)[C@@H](N)CC(=O)O [Compound 14]				1 to 10%	1 to 10%	could inhibit	10 to 25%	
CC(C)OC(=O)C[C@H](N)C(=O)O [Compound 36, 4-isopropyl L-aspartic acid ester]		1 to 10%	1 to 10%	1 to 10%	1 to 10%			
COC(=O)[C@@H](N)CC(=O)OC(C)(C)C [Compound 15]		10 to 25%	1 to 10%	10 to 25%	1 to 10%	could inhibit	10 to 25%	inhibition of the expression of Smad3 at the mRNA level (Smad3): could inhibit
CC(C)(C)OC(=O)[C@@H](N)CC(=O)OCc1ccccc1.Cl [Compound 42]						could inhibit		IL-1β mRNA inhibition rate (IL-1β): E (E represented that the inhibition rate was 1% to 10%); COL3A1 mRNA inhibition rate (COL3A1): E (E represented that the inhibition rate was 1% to 10%); TNF-α mRNA inhibition rate (TNF-α; 50 µM, 48 hours): D (D represented that the inhibition rate was 10% to 25%); Smad3 mRNA inhibition rate (Smad3; 50 µM): E (E represented that the inhibition rate was 1% to 10%); COL1A1 mRNA inhibition rate (COL1A1): C (C represented that the inhibition rate was 25% to 50%)
N[C@@H](CC(=O)OCc1ccccc1)C(=O)O [Compound 22]	1 to 10%	10 to 25%		1 to 10%	1 to 10%	could inhibit	10 to 25%	inhibition of the expression of Smad3 at the mRNA level (Smad3): could inhibit
CC(C)(C)OC(=O)N[C@@H](CC(=O)O)C(=O)O [Compound 1]		10 to 25%	1 to 10%		1 to 10%		1 to 10%	inhibition of the expression of Smad3 at the mRNA level (Smad3): could inhibit
COC(=O)C[C@H](N)C(=O)OC(C)(C)C.Cl [Compound 44]						could inhibit		IL-1β mRNA inhibition rate (IL-1β): E (E represented that the inhibition rate was 1% to 10%); COL3A1 mRNA inhibition rate (COL3A1): E (E represented that the inhibition rate was 1% to 10%); COL1A1 mRNA inhibition rate (COL1A1): D (D represented that the inhibition rate was 10% to 25%)
